# Key:
# Experiment in all cases: Test E pre-/postemergence herbicide test
# [1] = tested on: bipinnate beggarticks; format: in vivo, Bidens bipinnata; conditions: Preemergence
# From the text: (§1) Seeds of plant species selected from bipinnate beggarticks (Bidens bipinnata L.), hairy beggarticks (Bidens radiata Thuill.), bermudagrass (Cynodon dactylon (L.) Pers.), Surinam grass (Urochloa decumbens (Staph) R. D. Webster, previously named Brachiaria decumbens Stapf), large crabgrass (Digitaria sanguinalis (L.) Scop.), green foxtail (Setaria viridis (L.) P. Beauv.), goosegrass (Eleusine indica (L.) Gaertn.), johnsongrass (Sorghum halepense (L.) Pers.), kochia (Kochia scoparia (L.) Schrad.), pitted morningglory (Ipomoea lacunosa L.), purple nutsedge (Cyperus rotundus L.), common ragweed (Ambrosia elatior L.), mustard (Brassica nigra (L.) W. D. J. Koch), guineagrass (Panicum maximum Jacq.), dallisgrass (Paspalum dilatatum Poir.), barnyardgrass (Echinochloa crus-galli (L). P. Beauv.), southern sandbur (Cenchrus echinatus L.), common sowthistle (Sonchus oleraceous L.), prickly sida (Sida spinosa L.), Italian ryegrass (Lolium multiflorum Lam.), common purslane (Portulaca oleracea L.), broadleaf signalgrass (Brachiaria platyphylla (Griseb.) Nash), common groundsel (Senecio vulgaris L.), common chickweed (Stellaria media (L.) Vill/Cyr.), tropical spiderwort (Commelina benghalensis L.), annual bluegrass (Poa annua L.), downy bromegrass (Bromus tectorum L.), itchgrass (Rottboellia cochinchinensis (L.) L.f.), quackgrass (Elytrigia repens (L.) Nevski), Canada horseweed (Erigeron Canadensis L.), field bindweed (Convolvulus arvensis L.), spotted spurge (Euphorbia maculata L.), common mallow (Malva sylvestris (=s silvestris) L.), and Russian thistle (Salsola kali L. ssp. Ruthenica (Iljin) Soo) were planted and treated preemergence with test chemicals formulated in a non-phytotoxic solvent mixture which included a surfactant.
# (§2) At the same time, plants selected from these weed species were treated with postemergence applications of some of the test chemicals formulated in the same manner. Plants ranged in height from 2 to 18 cm (1- to 4-leaf stage) for postemergence treatments. Treated plants and controls were maintained in a greenhouse for 12 to 14 days, after which time all species were compared to controls and visually evaluated. Plant response ratings, summarized in Table E, are based on a scale of 0 to 100 where 0 is no effect and 100 is complete control. A dash (-) response means no test result.
# [2] = tested on: johnsongrass; format: in vivo, Sorghum halepense
# From the text: as §1, §2
# [3] = tested on: pitted morningglory; format: in vivo, Ipomoea lacunosa
# From the text: as §1, §2
# [4] = tested on: common mallow; format: in vivo, Malva sylvestris
# From the text: as §1, §2
# [5] = tested on: downy bromegrass; format: in vivo, Bromus tectorum
# From the text: as §1, §2
# [6] = tested on: annual bluegrass; format: in vivo, Poa annua
# From the text: as §1, §2
# [7] = tested on: field bindweed; format: in vivo, Convolvulus arvensis
# From the text: as §1, §2
# [8] = tested on: prickly sida; format: in vivo, Sida spinosa; conditions: Preemergence
# From the text: as §1, §2
# [9] = tested on: purple nutsedge; format: in vivo, Cyperus rotundus; conditions: scale 0 to 100
# From the text: as §1, §2
# [10] = tested on: Canada horseweed; format: in vivo, Erigeron Canadensis
# From the text: as §1, §2
# [11] = tested on: common purslane; format: in vivo, Portulaca oleracea; conditions: Preemergence
# From the text: as §1, §2
# [12] = tested on: common groundsel; format: in vivo, Senecio vulgaris
# From the text: as §1, §2
# [13] = 250 g ai/ha, scale 0 (no effect) to 100 (complete control)
# [14] = Preemergence, 62 g ai/ha, scale 0 to 100
# [15] = Preemergence, 125 g ai/ha, scale 0 to 100
# [16] = Preemergence, 250 g ai/ha, scale 0 (no effect) to 100 (complete control)
# [17] = Preemergence, 500 g ai/ha, scale 0 (no effect) to 100 (complete control)
# [18] = 500 g ai/ha, scale 0 (no effect) to 100 (complete control)
# [19] = Postemergence, 500 g ai/ha, scale 0 to 100
# [20] = Postemergence, 250 g ai/ha, scale 0 to 100
# [21] = postemergence, 125 g ai/ha, scale 0 to 100
# [22] = postemergence, 62 g ai/ha, scale 0 to 100
smiles,measurement,setting,value
CCc1nn(C(C)(C)C)nc1C(=O)Nc1cccc(C(=O)N(C)CC)c1 [Compound 384],"Plant response rating, Beggarticks, Bip.","[1]; 62 g ai/ha, scale 0 to 100",10
same,"Plant response rating, Beggarticks, Bip.",[1]; [13],100
same,"Plant response rating, Johnsongrass",[2]; [14],40
same,"Plant response rating, Johnsongrass",[2]; [15],75
same,"Plant response rating, Johnsongrass",[2]; [16],80
same,"Plant response rating, Johnsongrass",[2]; [17],85
same,"Plant response rating, Morningglory",[3]; [14],10
same,"Plant response rating, Morningglory",[3]; [15],60
same,"Plant response rating, Morningglory",[3]; [16],80
same,"Plant response rating, Morningglory",[3]; [17],90
same,"Plant response rating, Mallow",[4]; [14],50
same,"Plant response rating, Mallow",[4]; [15],70
same,"Plant response rating, Mallow",[4]; [16],70
same,"Plant response rating, Mallow",[4]; [17],95
same,"Plant response rating, Bromegrass, Downy",[5]; [14],20
same,"Plant response rating, Bromegrass, Downy",[5]; [15],40
same,"Plant response rating, Bromegrass, Downy",[5]; [16],40
same,"Plant response rating, Bromegrass, Downy",[5]; [17],90
same,"Plant response rating, Bluegrass",[6]; [14],50
same,"Plant response rating, Bluegrass",[6]; [15],75
same,"Plant response rating, Bluegrass",[6]; [16],80
same,"Plant response rating, Bluegrass",[6]; [17],95
same,"Plant response rating, Bindweed, Field",[7]; [14],80
same,"Plant response rating, Bindweed, Field",[7]; [16],80
same,"Plant response rating, Bindweed, Field",[7]; [17],95
same,"Plant response rating, Prickly Sida","[8]; 62 g ai/ha, scale 0 to 100",60
same,"Plant response rating, Prickly Sida",[8]; [13],60
same,"Plant response rating, Prickly Sida",[8]; [18],95
same,"Plant response rating, Nutsedge, Purple","[9]; Preemergence, 62 g ai/ha",60
same,"Plant response rating, Horseweed",[10]; [15],75
same,"Plant response rating, Horseweed",[10]; [16],95
same,"Plant response rating, Horseweed",[10]; [17],100
"CCn1nc(C(C)(C)C)cc1C(=O)Nc1cccc(C(N)=O)n1 [Compound 162, 6-[[[3-(1,1-dimethylethyl)-1-ethyl-1H-pyrazol-5-yl]carbonyl]amino]-2-pyridinecarboxamide]","Plant response rating, Johnsongrass",[2]; [19],100
same,"Plant response rating, Johnsongrass",[2]; [20],100
same,"Plant response rating, Johnsongrass",[2]; [14],60
same,"Plant response rating, Johnsongrass",[2]; [15],100
same,"Plant response rating, Johnsongrass",[2]; [16],100
same,"Plant response rating, Johnsongrass",[2]; [17],100
same,"Plant response rating, Johnsongrass",[2]; [21],80
same,"Plant response rating, Johnsongrass",[2]; [22],65
same,"Plant response rating, Morningglory",[3]; [19],90
same,"Plant response rating, Morningglory",[3]; [20],80
same,"Plant response rating, Morningglory",[3]; [14],30
same,"Plant response rating, Morningglory",[3]; [15],60
same,"Plant response rating, Morningglory",[3]; [16],85
same,"Plant response rating, Morningglory",[3]; [17],100
same,"Plant response rating, Morningglory",[3]; [21],70
same,"Plant response rating, Morningglory",[3]; [22],30
same,"Plant response rating, Mallow",[4]; [19],100
same,"Plant response rating, Mallow",[4]; [20],80
same,"Plant response rating, Mallow",[4]; [14],50
same,"Plant response rating, Mallow",[4]; [15],70
same,"Plant response rating, Mallow",[4]; [16],100
same,"Plant response rating, Mallow",[4]; [17],100
same,"Plant response rating, Mallow",[4]; [21],60
same,"Plant response rating, Mallow",[4]; [22],40
same,"Plant response rating, Bromegrass, Downy",[5]; [19],100
same,"Plant response rating, Bromegrass, Downy",[5]; [20],98
same,"Plant response rating, Bromegrass, Downy",[5]; [14],40
same,"Plant response rating, Bromegrass, Downy",[5]; [15],80
same,"Plant response rating, Bromegrass, Downy",[5]; [16],90
same,"Plant response rating, Bromegrass, Downy",[5]; [17],100
same,"Plant response rating, Bromegrass, Downy",[5]; [21],95
same,"Plant response rating, Bromegrass, Downy",[5]; [22],50
same,"Plant response rating, Bluegrass",[6]; [19],98
same,"Plant response rating, Bluegrass",[6]; [20],98
same,"Plant response rating, Bluegrass",[6]; [14],100
same,"Plant response rating, Bluegrass",[6]; [15],100
same,"Plant response rating, Bluegrass",[6]; [16],100
same,"Plant response rating, Bluegrass",[6]; [17],100
same,"Plant response rating, Bluegrass",[6]; [21],95
same,"Plant response rating, Bluegrass",[6]; [22],90
same,"Plant response rating, Bindweed, Field",[7]; [19],98
same,"Plant response rating, Bindweed, Field",[7]; [20],95
same,"Plant response rating, Bindweed, Field",[7]; [14],30
same,"Plant response rating, Bindweed, Field",[7]; [15],80
same,"Plant response rating, Bindweed, Field",[7]; [16],100
same,"Plant response rating, Bindweed, Field",[7]; [17],100
same,"Plant response rating, Bindweed, Field",[7]; [21],80
same,"Plant response rating, Bindweed, Field",[7]; [22],50
same,"Plant response rating, Purslane","[11]; 62 g ai/ha, scale 0 to 100",100
same,"Plant response rating, Purslane","[11]; 125 g ai/ha, scale 0 to 100",100
same,"Plant response rating, Purslane",[11]; [13],100
same,"Plant response rating, Purslane",[11]; [18],100
same,"Plant response rating, Nutsedge, Purple","[9]; Postemergence, 250 g ai/ha",75
same,"Plant response rating, Nutsedge, Purple","[9]; Preemergence, 62 g ai/ha",0
same,"Plant response rating, Groundsel",[12]; [19],100
same,"Plant response rating, Groundsel",[12]; [20],80
same,"Plant response rating, Groundsel",[12]; [14],10
same,"Plant response rating, Groundsel",[12]; [15],40
same,"Plant response rating, Groundsel",[12]; [16],80
same,"Plant response rating, Groundsel",[12]; [17],100
same,"Plant response rating, Groundsel",[12]; [21],30
same,"Plant response rating, Groundsel",[12]; [22],20
same,"Plant response rating, Horseweed",[10]; [19],100
same,"Plant response rating, Horseweed",[10]; [20],100
same,"Plant response rating, Horseweed",[10]; [14],100
same,"Plant response rating, Horseweed",[10]; [15],100
same,"Plant response rating, Horseweed",[10]; [16],100
same,"Plant response rating, Horseweed",[10]; [17],100
same,"Plant response rating, Horseweed",[10]; [21],70
same,"Plant response rating, Horseweed",[10]; [22],70

# Source: patent publication US20060069132A1, “Azolecarboxamide herbicides” (priority 2004, published 2006)
